This passage reports TGI results from PubChem BioAssay (NCI).

Among the test systems are UO-31 renal; IGROV1 ovarian; 786-0 renal; SK-MEL-28 melanoma; MALME-3M melanoma; SNB-19 CNS; SNB-75 CNS; MOLT-4 leukemia; MDA-MB-231 breast; NCI-H460 lung.
Holding throughout (assay): NCI tumour cell line growth inhibition, 48 h

Structures are written as SMILES.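 All cell lines were grown in 96-well plates and treated with compound for 48 hours. TGI is the concentration that stops growth completely.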

Regarding `c1ccc2cc3c(NC4=NCCO4)cccc3cc2c1`, the TGI in the experiment with UO-31 renal, in the experiment on IGROV1 ovarian, with 786-0 renal, with SK-MEL-28 melanoma, in the experiment on MALME-3M melanoma and with SNB-19 CNS was more than 100 µM each time. For the same compound, the TGI in the experiment with SNB-75 CNS, in the experiment on MOLT-4 leukemia, in the experiment on MDA-MB-231 breast and in the experiment on NCI-H460 lung was more than 100 µM in each case.
For the compound `COc1ccc(-c2oc3cc(OC)c(OC)c(O)c3c(=O)c2OC)cc1`, the TGI in the experiment on UO-31 renal was more than 100 µM; in the experiment on IGROV1 ovarian it was 56.8 µM; in the experiment with 786-0 renal it was 68.2 µM; with SK-MEL-28 melanoma it was more than 100 µM; in the experiment with MALME-3M melanoma it was more than 100 µM; in the experiment with SNB-19 CNS, more than 100 µM. The TGI is 37.4 µM in the experiment on SNB-75 CNS, more than 100 µM in the experiment with MOLT-4 leukemia, 50 µM in the experiment on MDA-MB-231 breast and more than 100 µM in the experiment on NCI-H460 lung.
`O=C(N=Nc1ccc(Cl)cc1Cl)NNc1ccc(Cl)cc1Cl`: the TGI with UO-31 renal was 37.5 µM; with IGROV1 ovarian it was 61.4 µM; in the experiment with 786-0 renal, 32.6 µM; in the experiment on SK-MEL-28 melanoma, 53.9 µM; in the experiment with MALME-3M melanoma, 36.6 µM; in the experiment with SNB-19 CNS it was more than 100 µM. In addition, the TGI with SNB-75 CNS was more than 100 µM; in the experiment with MOLT-4 leukemia, 50.5 µM; in the experiment with MDA-MB-231 breast, 57.8 µM; in the experiment on NCI-H460 lung it was 33.4 µM.
With `CC1(C)OCC(C2OC3OC(C)(C)OC3C2c2ccccc2)O1` (stereo not given), the TGI with UO-31 renal, with IGROV1 ovarian, in the experiment with 786-0 renal, with SK-MEL-28 melanoma, with MALME-3M melanoma and with SNB-19 CNS was more than 100 µM each time. The TGI with SNB-75 CNS, in the experiment on MOLT-4 leukemia, with MDA-MB-231 breast and with NCI-H460 lung was more than 100 µM each time.
Turning to `Cc1ccc(S(=O)C[C@](NC(=O)OCc2ccccc2)(Sc2ccccc2)C(F)F)cc1` (stereo not given in full), the TGI turned out to be 22.3 µM with UO-31 renal; 22.7 µM in the experiment with IGROV1 ovarian; 29.2 µM in the experiment on 786-0 renal; 38.1 µM in the experiment on SK-MEL-28 melanoma; 47.6 µM with MALME-3M melanoma; 31.3 µM in the experiment with SNB-19 CNS. Moreover, the TGI worked out at 28.3 µM with SNB-75 CNS, 22.2 µM in the experiment on MOLT-4 leukemia, 52.4 µM with MDA-MB-231 breast and 42.2 µM in the experiment with NCI-H460 lung.
As for `C[C@@H](C[C@H]1OC(C)(C)O[C@@H]1C(C)(C)O)[C@H]1CC=C2[C@]3(C)[C@H](O)C[C@H]4C(C)(C)[C@H](O)CC[C@]4(C)[C@H]3CC[C@]21C`, the TGI was 23.7 µM with UO-31 renal; 21.1 µM with IGROV1 ovarian; 18.5 µM in the experiment with 786-0 renal; 18.6 µM with SK-MEL-28 melanoma; 26.3 µM in the experiment on MALME-3M melanoma; 20.7 µM in the experiment on SNB-19 CNS. For the same compound, the TGI was 19.8 µM with SNB-75 CNS, 14.7 µM in the experiment with MOLT-4 leukemia, 18.7 µM in the experiment with MDA-MB-231 breast and 14.2 µM in the experiment on NCI-H460 lung.
Regarding `Cc1ccc2nc3n[nH]c(N)c3nc2c1`, the TGI in the experiment with UO-31 renal, with IGROV1 ovarian, in the experiment with 786-0 renal, in the experiment on SK-MEL-28 melanoma, in the experiment with MALME-3M melanoma and in the experiment with SNB-19 CNS was more than 100 µM throughout. Moreover, the TGI in the experiment on SNB-75 CNS, in the experiment on MOLT-4 leukemia, in the experiment with MDA-MB-231 breast and with NCI-H460 lung was more than 100 µM in each case.
In the case of `N#Cc1c2ccc([N+](=O)[O-])cc2c(=O)n2c1[nH]c1ccc(C(F)(F)F)cc12`, the TGI in the experiment with UO-31 renal was 56.9 µM; in the experiment with IGROV1 ovarian, more than 100 µM; in the experiment on 786-0 renal, more than 100 µM; in the experiment on SK-MEL-28 melanoma, more than 85.4 µM; in the experiment with MALME-3M melanoma, more than 100 µM; in the experiment on SNB-19 CNS it was more than 100 µM. Besides, the TGI was more than 100 µM with SNB-75 CNS, more than 100 µM in the experiment on MOLT-4 leukemia, more than 77.8 µM in the experiment with MDA-MB-231 breast and more than 100 µM in the experiment with NCI-H460 lung.
Take `Clc1ccc2c(NCCCCN3OC3c3ccccc3)ccnc2c1` (stereo not given): the TGI in the experiment on UO-31 renal was 28.6 µM; with IGROV1 ovarian, 27.7 µM; in the experiment with 786-0 renal it was 6.67 µM; with SK-MEL-28 melanoma, 7.42 µM; with MALME-3M melanoma it was 16 µM; in the experiment on SNB-19 CNS it was 18.9 µM. In addition, the TGI was found to be 11.4 µM in the experiment with SNB-75 CNS, 9.3 µM with MOLT-4 leukemia, 5.92 µM in the experiment with MDA-MB-231 breast and 21.9 µM in the experiment on NCI-H460 lung.
Consider `CCOC(=O)c1cn2c(n1)sc1cc(OC)ccc12`, for which the TGI in the experiment on UO-31 renal, with IGROV1 ovarian, in the experiment with 786-0 renal, in the experiment with SK-MEL-28 melanoma, with MALME-3M melanoma and in the experiment with SNB-19 CNS was more than 100 µM throughout. In addition, the TGI with SNB-75 CNS, with MOLT-4 leukemia, in the experiment with MDA-MB-231 breast and in the experiment on NCI-H460 lung was more than 100 µM each time.
Regarding `N#Cc1c(Cl)c2cccnc2n2c1nc1ccccc12`, the TGI is 3.33 µM with UO-31 renal; 4.94 µM in the experiment on IGROV1 ovarian; 3.27 µM with 786-0 renal; 9.75 µM in the experiment on SK-MEL-28 melanoma; 3.28 µM in the experiment on MALME-3M melanoma; 38.5 µM with SNB-19 CNS. The TGI in the experiment on SNB-75 CNS was 15.4 µM; in the experiment with MOLT-4 leukemia, 6.15 µM; in the experiment with MDA-MB-231 breast, 5.38 µM; in the experiment on NCI-H460 lung, 19.6 µM.
`CCCCCCCCC/C=C1/CC(CO)(COC(=O)CC(C(C)C)C(C)C)OC1=O` (stereo not given): the TGI is 18.1 µM in the experiment with UO-31 renal; 29.1 µM in the experiment with IGROV1 ovarian; 16.1 µM in the experiment on 786-0 renal; 31.8 µM in the experiment on SK-MEL-28 melanoma; 14.3 µM with MALME-3M melanoma; 23.9 µM in the experiment on SNB-19 CNS. Besides, the TGI worked out at 18.9 µM with SNB-75 CNS, 35.4 µM in the experiment on MOLT-4 leukemia, 15.6 µM in the experiment with MDA-MB-231 breast and 18.2 µM with NCI-H460 lung.
As to `COc1ccc(/C=C2\C[C@H]3[C@@H]4CCC5=C/C(=N/O)CC[C@]5(C)[C@H]4CC[C@]3(C)\C2=N\O)cc1`, the TGI in the experiment with UO-31 renal is 57.5 µM; in the experiment with IGROV1 ovarian, more than 100 µM; in the experiment with 786-0 renal, more than 100 µM; in the experiment with SK-MEL-28 melanoma, more than 100 µM; with MALME-3M melanoma, more than 100 µM; with SNB-19 CNS it was more than 100 µM. Further, the TGI in the experiment with SNB-75 CNS, in the experiment with MOLT-4 leukemia, in the experiment with MDA-MB-231 breast and with NCI-H460 lung was more than 100 µM throughout.
In the case of `COC(=O)C1Cc2c(OC)ccc(OC)c2C(O)C1C(=O)OC` (stereo not given), the TGI with UO-31 renal, in the experiment with IGROV1 ovarian, in the experiment with 786-0 renal, in the experiment on SK-MEL-28 melanoma, with MALME-3M melanoma and with SNB-19 CNS was more than 100 µM each time. For the same compound, the TGI with SNB-75 CNS, with MOLT-4 leukemia, in the experiment on MDA-MB-231 breast and in the experiment on NCI-H460 lung was more than 100 µM in each case.
As for `C[C@H]1C2Cc3cc(O)ccc3[C@@]1(C)CCN2CCc1ccc(N)cc1`, the TGI in the experiment with UO-31 renal is more than 100 µM; in the experiment on IGROV1 ovarian, 66.3 µM; in the experiment on 786-0 renal it was 30.7 µM; with SK-MEL-28 melanoma, 34.4 µM; in the experiment on MALME-3M melanoma it was 34.8 µM; with SNB-19 CNS, more than 100 µM. The TGI with SNB-75 CNS, in the experiment on MOLT-4 leukemia, with MDA-MB-231 breast and with NCI-H460 lung was more than 100 µM each time.
On to `O=Cc1ccc(OC[C@H]2COC(=O)N2)cc1`, for which the TGI in the experiment with UO-31 renal, in the experiment with IGROV1 ovarian, with 786-0 renal, in the experiment on SK-MEL-28 melanoma, in the experiment on MALME-3M melanoma and in the experiment on SNB-19 CNS was more than 100 µM each time. Moreover, the TGI in the experiment with SNB-75 CNS, with MOLT-4 leukemia, in the experiment with MDA-MB-231 breast and in the experiment with NCI-H460 lung was more than 100 µM throughout.
Turning to `COc1cc(C2c3cc4c(cc3OC(NNS(=O)(=O)c3ccc(C)cc3)C2C)OCO4)cc(OC)c1OC` (stereo not given), the TGI in the experiment with UO-31 renal was more than 100 µM; in the experiment on IGROV1 ovarian, more than 67.3 µM; in the experiment with 786-0 renal, 31.5 µM; in the experiment on SK-MEL-28 melanoma it was more than 91.2 µM; in the experiment with MALME-3M melanoma, more than 60.8 µM; in the experiment on SNB-19 CNS, more than 49.1 µM. Also, the TGI with SNB-75 CNS was 17.1 µM; with MOLT-4 leukemia it was more than 100 µM; with MDA-MB-231 breast it was more than 64.1 µM; with NCI-H460 lung, 12.4 µM.
Regarding `COC(=O)c1c(CC(Cc2ccc3c(c2)CCCC3)C(=O)O)ccc2c1CCCC2` (stereo not given), the TGI with UO-31 renal is 62.3 µM; with IGROV1 ovarian, more than 100 µM; with 786-0 renal, more than 100 µM; with SK-MEL-28 melanoma, more than 100 µM; in the experiment with MALME-3M melanoma, more than 100 µM; in the experiment on SNB-19 CNS it was more than 100 µM. Moreover, the TGI in the experiment on SNB-75 CNS was more than 100 µM; in the experiment with MOLT-4 leukemia, more than 100 µM; in the experiment on MDA-MB-231 breast, more than 100 µM; with NCI-H460 lung, 47.9 µM.
In the case of `O=c1[nH]c(SCc2cccc([N+](=O)[O-])c2)nc2nc[nH]c12`, the TGI in the experiment on UO-31 renal, in the experiment with IGROV1 ovarian, with 786-0 renal, with SK-MEL-28 melanoma, in the experiment with MALME-3M melanoma and in the experiment with SNB-19 CNS was more than 100 µM in each case. Further, the TGI in the experiment on SNB-75 CNS, in the experiment with MOLT-4 leukemia, with MDA-MB-231 breast and with NCI-H460 lung was more than 100 µM throughout.
As to `COc1ccc2c(O)c(S(=O)(=O)c3ccc(C)cc3)c(=O)oc2c1OC`, the TGI with UO-31 renal, with IGROV1 ovarian, with 786-0 renal, in the experiment with SK-MEL-28 melanoma, in the experiment with MALME-3M melanoma and with SNB-19 CNS was more than 100 µM throughout. Moreover, the TGI with SNB-75 CNS, in the experiment on MOLT-4 leukemia, in the experiment with MDA-MB-231 breast and in the experiment with NCI-H460 lung was more than 100 µM throughout.
